# Data as given in patent US5177085A, “Dihydro-isoquinoline derivatives, processes for their production, pharmaceutical compositions containing them, and their use in treating asthma” (Sandoz Ltd., priority 1990, dated 1993).
# What was measured:
# [1] = tested on: guinea-pig tracheal ring preparations; test: Relaxation of guinea-pig tracheal smooth muscle in vitro (Example A.1.a); assay type: cell-based, Guinea-pig (Dunkin-Hartley); conditions: Cavia porcellus; guinea-pig tracheal rings, spontaneous tone, 37° C., cumulative; pure or substantially pure [3S] enantiomer for Example 1; read-out: IC50 (concentration required to increase relaxation by 50%)
# Method: (§1) Guinea-pigs (Dunkin-Hartley, 350-500gm) are killed with Pentothal (100mg/kg i.p.). The trachea is dissected and a section 2-3cm in length excised. The trachea is transected in the transverse plane at alternate cartilage plates so as to give rings of tissue 3-5mm in depth. The proximal and distal rings are discarded. Individual rings are mounted vertically on stainless steel supports, one of which is fixed at the base of an organ bathm the other being attached to an isometric transducer. The rings are bathed in Krebs solution composition mM: NaHCo3 25, NaCl 113, KCl 4.7, MgSO4.7H2 O 1.2, KH2 PO4 1.2, CaCl2 2.5, Glucose 11.7) at 37° C. and gassed with O2 /CO2 (95:5,v/v). Rings prepared in this manner, preloaded with 1 g, generate spontaneous tone and, after a period of equilibration (45-60 min.), relax consistently on addition of spasmolytic drugs. To ascertain spasmolytic activity, test substances are dissolved in physiological saline and added in increasign quantities to the organ bath at 5 min. intervals to provide a cumulative concentration-effect curve.
# [2] = tested on: human bronchus ring preparations; test: Relaxation of human bronchus in vitro (Example A.1.b); assay type: cell-based; conditions: human bronchus rings; pure or substantially pure [3S] enantiomer for Example 1
# Method: as §1
# The test is performed analogously to 1. a above but employing rings of human bronchus dissected from lung that has been resected for carcinoma. Dissected material is used immediately or first immersed in total calf serum containing DMSO ([…]), slowly frozen to -70° C. and stored in liquid N2 at -190° C. […]
# [3] = tested on: PAF-induced airways hyperreactivity in guinea-pigs; test: Suppression of airways hyperreactivity in PAF-treated animals (Example B); assay type: in vivo; conditions: Cavia porcellus, iv; headed Example B (PAF-treated guinea-pigs); i.v.; pure or substantially pure [3S] enantiomer for Example 1; read-out: ID50 (dose required to increase relaxation by 50%)
# Method: Guinea pigs (Dunkin-Hartley, male, 400-600g) are anesthetized with phenobarbital (100-mg/kg i.p.) and pentobarbital (30 mg/kg i.p.) and paralyzed with gallamine (10 mg/kg i.m.). Animals are ventilated via a tracheal cannula (10 ml/kg, 1 Hz) with a mixture of air and oxygen (1:1 v/v). Blood pressure and heart rate are recorded at the carotid artery. Ventilation is monitored by a Fleisch flow transducer in line with the inspiratory circuit. When making measurements of flow, coincident pressure changes in the thorax are monitored directly via an intrathoracic trochar, permitting display of differential pressure relative to the trachea. From this information in relation to flow and differential pressure, resistance [R1 ] and compliance [Ddyn ] are calculated using a digital respiratory analyzer for each respiratory cycle.
# Guinea-pigs are anesthetized and prepared for recording of lung function as described under Example A.2. above. […] Following infusion of PAF (platelet activating factor) over 1 hr.
SMILES,IC50 [1] [µM],IC50 [2] [µM],ED50 [3] [mg/kg]
Cn1c(=O)c2[nH]cnc2n(C)c1=O [aminophylline],130,158,–
"COc1cc(OC)cc(C2=N[C@H](CO)Cc3cc(OC)c(OC)cc32)c1 [Example 1, [3S] 3,4-dihydro-6,7-dimethoxy-1-(3,5-dimethoxyphenyl)-3-hydroxymethyl-isoquinoline]",0.18,1.9,~0.05
Cn1c(=O)c2[nH]cnc2n(C)c1=O [theophyline],–,–,3
